The source of these data is patent publication US20220313701A1, “MODULATORS OF TREX1” (Constellation Pharmaceuticals, Inc., priority 2019, published 2022).

The target of assay [1] is T1, human TREX2 (residues M44-A279) (Homo sapiens, UniProt Q9BQ50).
T1 construct: human TREX2 (residues M44-A279, expressed in E. coli); His-Tev (His tag with TEV site) (N); made in house; host or cells: E. coli
T1 sequence (Q9BQ50 44-279 isoform Q9BQ50-1): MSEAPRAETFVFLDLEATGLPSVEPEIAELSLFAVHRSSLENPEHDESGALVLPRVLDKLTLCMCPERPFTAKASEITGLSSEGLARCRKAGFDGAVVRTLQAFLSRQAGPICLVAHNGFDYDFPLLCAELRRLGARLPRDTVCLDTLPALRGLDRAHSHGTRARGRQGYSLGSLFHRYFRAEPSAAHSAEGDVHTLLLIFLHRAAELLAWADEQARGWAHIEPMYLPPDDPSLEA
The experiment in a line: TREX2 Biochemical Assay (fluorescence assay, degradation of dsDNA substrate). To be noted: 2.5 nM TREX2, 60 nM dsDNA substrate, 25 minutes at room temperature. A digest of the protocol: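 Final conditions: 2.5 nM His-Tev-tagged TREX2 (E. coli-expressed), 60 nM fluorophore/quencher-labelled dsDNA, 50 mM Tris pH 7.4, 150 mM NaCl, 100 mM MgCl2, 1% DMSO; 10-point compound dose-response. Incubated 25 min at room temperature, then EDTA-quenched; fluorescence read at ex 570/em 615 nm. IC50 from four-parameter fit against pre-quenched and no-inhibitor controls.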

In assay [2] the target is T2, full length human TREX1 (Homo sapiens, UniProt Q9NSU2).
T2 construct: N-terminally His-Tev tagged full length human TREX1; His-Tev (His tag with TEV site) (N); made in house; host or cells: E. coli
T2 sequence (Q9NSU2 1-314): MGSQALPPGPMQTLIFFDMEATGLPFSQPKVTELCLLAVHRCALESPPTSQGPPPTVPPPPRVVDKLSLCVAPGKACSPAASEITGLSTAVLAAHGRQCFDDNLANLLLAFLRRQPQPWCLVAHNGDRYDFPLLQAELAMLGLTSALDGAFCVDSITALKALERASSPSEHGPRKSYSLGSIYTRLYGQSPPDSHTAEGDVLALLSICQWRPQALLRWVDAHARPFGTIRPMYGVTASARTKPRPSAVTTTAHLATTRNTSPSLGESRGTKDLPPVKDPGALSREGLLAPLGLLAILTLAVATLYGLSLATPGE
The experiment in a line: TREX1 Biochemical Assay (fluorescence assay, degradation of dsDNA substrate). The note with it: 150 pM TREX1, 60 nM dsDNA substrate, 25 minutes at room temperature. A digest of the protocol:
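N-terminally His-Tev-tagged enzyme expressed in E. coli, 150 pM, with 60 nM dual-labelled dsDNA (TEX615/quencher) in pH 7.4 Tris buffer with MgCl2, 1% DMSO; 10-point dose-response, 25 min at room temperature, then EDTA quench. Fluorescence at 615 nm (excitation 570 nm); IC50 from four-parameter fit against pre-quenched and no-inhibitor controls.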

By IC50 is commonly meant the concentration that gives 50% inhibition. A lower IC50 goes with greater potency in that assay. `Cc1nc(N2CCC(O)(c3ccc(F)c(F)c3)CC2)cc(N2CCOC[C@H]2c2ccccc2)n1` [Example 104, (R)-4-(3,4-difluorophenyl)-1-(2-methyl-6-(3-phenylmorpholino)pyrimidin-4-yl)piperidin-4-ol]: the values for the half-maximal inhibitory concentration (IC50) in assay [1] and in assay [2] were over 100 µM and 1 to 10 µM, respectively.

Regarding `O=C(NCCc1ccccc1)c1cncc(N2CCC(O)(c3ccc(F)cc3)CC2)n1` [Example 64, 6-(4-(4-fluorophenyl)-4-hydroxypiperidin-1-yl)-N-phenethylpyrazine-Z-carboxamide], the half-maximal inhibitory concentration (IC50) in assay [1] was over 100 µM; in assay [2], 1 to 10 µM.

Consider `Cc1nn(C)cc1-c1cncc(N2CC[C@@](O)(c3ccc(F)c(F)c3)C[C@@H]2C)n1` (racemic) [Example 102, (rac)-cis-4-(3,4-difluorophenyl)-1-(6-(1,3-dimethyl-1H-pyrazol-4-yl)pyrazin-2-yl)-2-methylpiperidin-4-ol], for which the IC50 in assay [1] was over 100 µM; in assay [2], 1 to 10 µM.

`Cc1nn(C)cc1-c1cccc(N2CCC(O)(c3ccc(F)c(F)c3)CC2)n1` [Example 42, 4-(3,4-difluorophenyl)-1-(6-(1,3-dimethyl-1H-pyrazol-4-yl)pyridin-2-yl)piperidin-4-ol]: the IC50 is over 100 µM in assay [1] and 1 to 10 µM in assay [2].

In the case of `Cc1nc(N2CCC(O)(c3ccc(F)c(F)c3)CC2)cc(-n2c(C)cnc2-c2ccccn2)n1` [Example 107, 4-(3,4-difluorophenyl)-1-(2-methyl-6-(5-methyl-2-(pyridin-2-yl)-1H-imidazol-1-yl)pyrimidin-4-yl)piperidin-4-ol], the figures for the IC50 in assay [1] and in assay [2] were over 100 µM and 1 to 10 µM, respectively.

Turning to `Cc1nn(C)cc1-c1cnnc(N2CCC(O)(c3ccc(F)c(F)c3)CC2)c1` [Example 88, 4-(3,4-difluorophenyl)-1-(5-(1,3-dimethyl-1H-pyrazol-4-yl)pyridazin-3-yl)piperidin-4-ol], the figures for the 50% inhibitory concentration (IC50) in assay [1] and in assay [2] were over 100 µM and 0.1 to 1 µM, respectively.

`Cc1nn(C)cc1-c1cc(C(N)=O)cc(N2CCC(O)(c3cc(F)c(F)c(F)c3)CC2)n1` [Example 93, 2-(1,3-dimethyl-1H-pyrazol-4-yl)-6-(4-hydroxy-4-(3,4,5-trifluorophenyl)piperidin-1-yl)isonicotinamide]: the figures for the IC50 in assay [1] and in assay [2] were over 100 µM and 0.1 to 1 µM, respectively.

`Cc1ccc(-c2cncc(N3CCC(O)(c4ccc(F)c(F)c4)CC3)n2)c(C)n1` [Example 17, 4-(3,4-difluorophenyl)-1-(6-(2,6-dimethylpyridin-3-yl)pyrazin-2-yl)piperidin-4-ol]: the half-maximal inhibitory concentration (IC50) in assay [1] lay in the range of 10 to 100 µM; in assay [2], 0.1 to 1 µM.

Turning to `Cc1nn(C)cc1-c1cncc(N2CCC(O)(c3ccc(F)c(F)c3)CC2)n1` [Example 9, 4-(3,4-difluorophenyl)-1-(6-(1,3-dimethyl-1H-pyrazol-4-yl)pyrazin-2-yl)piperidin-4-ol], the IC50 in assay [1] is 10 to 100 µM; in assay [2] it was under 0.1 µM.

Take `OC1(c2ccc(F)cc2)CCN(c2cncc(-c3ccc(C(F)(F)F)cc3)n2)CC1` [Example 33, 4-(4-fluorophenyl)-1-(6-(4-(trifluoromethyl)phenyl)pyrazin-2-yl)piperidin-4-ol]: the IC50 is over 100 µM in assay [1] and over 10 µM in assay [2].

Regarding `Cc1nn(C)c(C)c1-c1cncc(N2CCC(O)(c3ccc(F)c(F)c3)CC2)n1` [Example 62, 4-(3,4-difluorophenyl)-1-(6-(1,3,5-trimethyl-1H-pyrazol-4-yl)pyrazin-2-yl)piperidin-4-ol], the IC50 was 10 to 100 µM in assay [1] and under 0.1 µM in assay [2].

On to `COc1ccc(C2(O)CCN(c3cncc(-n4cccn4)n3)CC2)cc1` [Example 2, 1-(6-(1H-pyrazol-1-yl)pyrazin-2-yl)-4-(4-methoxyphenyl)piperidin-4-ol], for which the half-maximal inhibitory concentration (IC50) is over 100 µM in assay [1] and over 10 µM in assay [2].

For `OC1(c2ccc(Cl)cc2)CCN(c2cncc(-n3cccn3)n2)CC1` [Example 1, 1-(6-(1H-pyrazol-1-yl)pyrazin-2-yl)-4-(4-chlorophenyl)piperidin-4-ol], the IC50 in assay [1] is 10 to 100 µM; in assay [2], 1 to 10 µM.

Take `OC1(c2ccc(F)cc2)CCN(c2cncc(-c3ccccc3F)n2)CC1` [Example 25, 4-(4-fluorophenyl)-1-(6-(2-fluorophenyl)pyrazin-2-yl)piperidin-4-ol]: the IC50 is over 100 µM in assay [1] and 1 to 10 µM in assay [2].

Consider `Cc1nn(C)cc1-c1nccc(N2CCC(O)(c3ccc(F)c(F)c3)CC2)n1` [Example 54, 4-(3,4-difluorophenyl)-1-(2-(1,3-dimethyl-1H-pyrazol-4-yl)pyrimidin-4-yl)piperidin-4-ol], for which the half-inhibitory concentration (IC50) in assay [1] was over 100 µM; in assay [2] it was 1 to 10 µM.

For `OC1(c2ccc(F)cc2)CCN(c2cncc(-c3cncnc3)n2)CC1` [Example 18, 4-(4-fluorophenyl)-1-(6-(pyrimidin-5-yl)pyrazin-2-yl)piperidin-4-ol], the IC50 in assay [1] is over 100 µM; in assay [2] it was 1 to 10 µM.

On to `Cc1nn(C)cc1-c1cncc(N2CCC(O)(c3ccc(F)cc3)C(F)(F)C2)n1` (stereo not drawn) [Example 56, 1-(6-(1,3-dimethyl-1H-pyrazol-4-yl)pyrazin-2-yl)-3,3-difluoro-4-(4-fluorophenyl)piperidin-4-ol], for which the IC50 in assay [1] is over 100 µM; in assay [2] it was 0.1 to 1 µM.

`Cc1nc(N2CCC(O)(c3ccc(F)c(F)c3)CC2)cc(N2CCOC[C@@H]2c2ccccc2)n1` [Example 105, (S)-4-(3,4-difluorophenyl)-1-(2-methyl-6-(3-phenylmorpholino)pyrimidin-4-yl)piperidin-4-ol]: the IC50 in assay [1] is over 100 µM; in assay [2] it was 1 to 10 µM.

`Cn1cc(-c2cncc(N3CCC(O)(c4ccc(F)cc4)CC3)n2)cn1` [Example 7, 4-(4-fluorophenyl)-1-(6-(1-methyl-1H-pyrazol-4-yl)pyrazin-2-yl)piperidin-4-ol]: the IC50 in assay [1] was over 100 µM; in assay [2], 1 to 10 µM.

Regarding `Cc1nn(C)cc1-c1cc(N2CCC(O)(c3ccc(F)c(F)c3)CC2)cnn1` [Example 87, 4-(3,4-difluorophenyl)-1-(6-(1,3-dimethyl-1H-pyrazol-4-yl)pyridazin-4-yl)piperidin-4-ol], the 50% inhibitory concentration (IC50) in assay [1] was over 100 µM; in assay [2], 1 to 10 µM.

`Cc1c(-c2cncc(N3CCC(O)(c4ccc(F)cc4)CC3)n2)cnn1C` [Example 12, 1-(6-(1,5-dimethyl-1H-pyrazol-4-yl)pyrazin-2-yl)-4-(4-fluorophenyl)piperidin-4-ol]: the concentration for half-maximal inhibition (IC50) in assay [1] was over 100 µM; in assay [2], 1 to 10 µM.

In the case of `Cc1nn(C)cc1-c1cc(N2CCC(O)(c3ccc(F)c(F)c3)CC2)nc(-c2ccccc2)n1` [Example 59, 4-(3,4-difluorophenyl)-1-(6-(1,3-dimethyl-1H-pyrazol-4-yl)-2-phenylpyrimidin-4-yl)piperidin-4-ol], the IC50 in assay [1] was over 100 µM; in assay [2], 1 to 10 µM.

In the case of `Cc1ncc(-c2cnn(C)c2)nc1N1CCC(O)(c2ccc(F)c(F)c2)CC1` [Example 89, 4-(3,4-difluorophenyl)-1-(3-methyl-6-(1-methyl-1H-pyrazol-4-yl)pyrazin-2-yl)piperidin-4-ol], the IC50 in assay [1] is over 100 µM; in assay [2], 1 to 10 µM.

For `N#Cc1ccc(-c2cncc(N3CCC(O)(c4ccc(F)cc4)CC3)n2)cc1` [Example 30, 4-(6-(4-(4-fluorophenyl)-4-hydroxypiperidin-1-yl)pyrazin-2-yl)benzonitrile], the results for the IC50 in assay [1] and in assay [2] were over 100 µM and 1 to 10 µM, respectively.
